In ChEMBL document CHEMBL3526082, “Identification of metabolites of ganoderic acid D by ultra-performance liquid chromatography/quadrupole time-of-flight mass spectrometry” (Drug Metab Dispos, 2012):

What was measured:
[1] = Retention time of the compound in Sprague-Dawley rat bile by UPLC/Q-TOF analysis; format: ADME
[2] = Drug excretion in Sprague-Dawley rat bile treated with ganoderic acid D at 10 mg/kg, po after 12 hrs by UPLC/Q-TOF analysis; format: ADME, organism-based; parameters: dose 10 mg/kg, route oral; conditions: in vivo
Liver microsome [3] = experiment: Drug level in Sprague-Dawley rat liver microsomes assessed as compound formation treated with ganoderic acid D at 100 uM after 1 hr by UPLC/Q-TOF analysis; format: ADME
Liver microsome [4] = experiment: Drug metabolism in Sprague-Dawley rat liver microsomes assessed as (6R)-6-((5R,7S,10S,13R,14R,17R)-2,7-dihydroxy-4-(hydroxymethyl)-4,10,13,14-tetramethyl-3,11,15-trioxo-2,3,4,5,6,7,10,11,12,13,14,15,16,17-tetradecahydro-1H-cyclopenta[a]phenanthren-17-yl)-2-methyl-4-oxoheptanoic acid formation at 100 uM after 1 hr by UPLC/Q-TOF analysis; format: ADME
[5] = Drug excretion in Sprague-Dawley rat urine assessed as metabolite level at 10 mg/kg, po by UPLC/Q-TOF analysis; format: ADME, organism-based; parameters: dose 10 mg/kg, route oral; conditions: in vivo
[6] = Drug excretion in Sprague-Dawley rat bile assessed as (6R)-6-((5R,7S,10S,13R,14R)-7-hydroxy-4-(hydroxymethyl)-4,10,13,14-tetramethyl-3,11,15-trioxo-2,3,4,5,6,7,10,11,12,13,14,15-dodecahydro-1H-cyclopenta[a]phenanthren-17-yl)-2-methyl-4-oxoheptanoic acid level at 10 mg/kg, po after 12 hrs by UPLC/Q-TOF analysis; format: ADME, organism-based; parameters: dose 10 mg/kg, route oral; conditions: in vivo
[7] = Drug excretion in Sprague-Dawley rat bile assessed as (6R)-6-((5R,7S,10S,13R,14R,17R)-7-hydroxy-4,4,10,13,14-pentamethyl-3,11,15-trioxo-2,3,4,5,6,7,10,11,12,13,14,15,16,17-tetradecahydro-1H-cyclopenta[a]phenanthren-17-yl)-2-(hydroxymethyl)-4-oxoheptanoic acid level at 10 mg/kg, po after 12 hrs by UPLC/Q-TOF analysis; format: ADME, organism-based; parameters: dose 10 mg/kg, route oral; conditions: in vivo
Plasma [8] = experiment: Drug level in Sprague-Dawley rat plasma treated with ganoderic acid D at 10 mg/kg, po by UPLC/Q-TOF analysis; format: ADME, organism-based; parameters: dose 10 mg/kg, route oral; conditions: in vivo
Plasma [9] = experiment: Drug level in Sprague-Dawley rat plasma at 10 mg/kg, po by UPLC/Q-TOF analysis; format: ADME, organism-based; parameters: dose 10 mg/kg, route oral; conditions: in vivo
[10] = Drug excretion in Sprague-Dawley rat bile assessed as 3,7,11,15,23-pentaoxolanost-8-en-26-oic acid level at 10 mg/kg, po after 12 hrs by UPLC/Q-TOF analysis; format: ADME, organism-based; parameters: dose 10 mg/kg, route oral; conditions: in vivo
[11] = Drug excretion in Sprague-Dawley rat bile assessed as 3,7(S)-dihydroxy-11,15,23-trioxolanost-8-en-26-oic acid level at 10 mg/kg, po after 12 hrs by UPLC/Q-TOF analysis; format: ADME, organism-based; parameters: dose 10 mg/kg, route oral; conditions: in vivo
Liver microsome [12] = experiment: Drug metabolism in Sprague-Dawley rat liver microsomes assessed as (6R)-6-((5R,7S,10S,13R,14R,17R)-2,7-dihydroxy-4,4,10,13,14-pentamethyl-3,11,15-trioxo-2,3,4,5,6,7,10,11,12,13,14,15,16,17-tetradecahydro-1H-cyclopenta[a]phenanthren-17-yl)-2-methyl-4-oxoheptanoic acid formation at 100 uM after 1 hr by UPLC/Q-TOF analysis; format: ADME
[13] = Drug excretion in Sprague-Dawley rat bile assessed as (6R)-6-((5R,7S,10S,13R,14R,17R)-2,7-dihydroxy-4,4,10,13,14-pentamethyl-3,11,15-trioxo-2,3,4,5,6,7,10,11,12,13,14,15,16,17-tetradecahydro-1H-cyclopenta[a]phenanthren-17-yl)-2-(hydroxymethyl)-4-oxoheptanoic acid level at 10 mg/kg, po after 12 hrs by UPLC/Q-TOF analysis; format: ADME, organism-based; parameters: dose 10 mg/kg, route oral; conditions: in vivo
[14] = Drug excretion in Sprague-Dawley rat bile assessed as (6R)-6-((5R,7S,10S,13R,14R,17R)-2,7-dihydroxy-4,4,10,13,14-pentamethyl-3,11,15-trioxo-2,3,4,5,6,7,10,11,12,13,14,15,16,17-tetradecahydro-1H-cyclopenta[a]phenanthren-17-yl)-2-hydroxy-2-methyl-4-oxoheptanoic acid level at 10 mg/kg, po after 12 hrs by UPLC/Q-TOF analysis; format: ADME, organism-based; parameters: dose 10 mg/kg, route oral; conditions: in vivo
[15] = Drug excretion in Sprague-Dawley rat bile assessed as (6R)-6-((5R,7S,10S,13R,14R)-3,7-dihydroxy-4,4,10,13,14-pentamethyl-11,15-dioxo-2,3,4,5,6,7,10,11,12,13,14,15-dodecahydro-1H-cyclopenta[a]phenanthren-17-yl)-2-methyl-4-oxoheptanoic acid level at 10 mg/kg, po after 12 hrs by UPLC/Q-TOF analysis; format: ADME, organism-based; parameters: dose 10 mg/kg, route oral; conditions: in vivo
HeLa = experiment: Antiproliferative activity against human HeLa cells assessed as inhibition of cell proliferation after 48 hrs; format: functional, cell-based
[16] = Drug excretion in Sprague-Dawley rat bile assessed as 7(S) -hydroxy-11,15,23-trioxo-3-sulfooxylanost-8-en-26-oic acid level at 10 mg/kg, po after 12 hrs by UPLC/Q-TOF analysis; format: ADME, organism-based; parameters: dose 10 mg/kg, route oral; conditions: in vivo
Liver microsome [17] = experiment: Drug metabolism in Sprague-Dawley rat liver microsomes assessed as 3,7(S)-dihydroxy-11,15,23-trioxolanost-8-en-26-oic acid formation at 100 uM after 1 hr by UPLC/Q-TOF analysis; format: ADME
[18] = Drug excretion in Sprague-Dawley rat bile assessed as (6R)-6-((5R,7S,10S,13R,14R,17R)-2,7-dihydroxy-4,4,10,13,14-pentamethyl-3,11,15-trioxo-2,3,4,5,6,7,10,11,12,13,14,15,16,17-tetradecahydro-1H-cyclopenta[a]phenanthren-17-yl)-2-methyl-4-oxoheptanoic acid level at 10 mg/kg, po after 12 hrs by UPLC/Q-TOF analysis; format: ADME, organism-based; parameters: dose 10 mg/kg, route oral; conditions: in vivo
Rattus norvegicus = experiment: Drug metabolism in Sprague-Dawley rat plasma assessed as 3,7(S)-dihydroxy-11,15,23-trioxolanost-8-en-26-oic acid level at 10 mg/kg, po by UPLC/Q-TOF analysis; format: ADME, organism-based; parameters: dose 10 mg/kg, route oral; conditions: in vivo
[19] = Drug excretion in Sprague-Dawley rat urine assessed as parent compound at 10 mg/kg, po by UPLC/Q-TOF analysis; format: ADME, organism-based; parameters: dose 10 mg/kg, route oral; conditions: in vivo
[20] = Drug excretion in Sprague-Dawley rat bile assessed as (6R)-6-((5R,7S,10S,13R,14R,17R)-2,7-dihydroxy-4-(hydroxymethyl)-4,10,13,14-tetramethyl-3,11,15-trioxo-2,3,4,5,6,7,10,11,12,13,14,15,16,17-tetradecahydro-1H-cyclopenta[a]phenanthren-17-yl)-2-methyl-4-oxoheptanoic acid level at 10 mg/kg, po after 12 hrs by UPLC/Q-TOF analysis; format: ADME, organism-based; parameters: dose 10 mg/kg, route oral; conditions: in vivo
[21] = Drug excretion in Sprague-Dawley rat bile assessed as (6R)-2-hydroxy-6-((5R,7S,10S,13R,14R,17R)-7-hydroxy-4-(hydroxymethyl)-4,10,13,14-tetramethyl-3,11,15-trioxo-2,3,4,5,6,7,10,11,12,13,14,15,16,17-tetradecahydro-1H-cyclopenta[a]phenanthren-17-yl)-2-methyl-4-oxoheptanoic acid level at 10 mg/kg, po after 12 hrs by UPLC/Q-TOF analysis; format: ADME, organism-based; parameters: dose 10 mg/kg, route oral; conditions: in vivo
[22] = Drug excretion in Sprague-Dawley rat bile assessed as (6R)-2-hydroxy-6-((5R,7S,10S,13R,14R,17R)-7-hydroxy-4,4,10,13,14-pentamethyl-3,11,15-trioxo-2,3,4,5,6,7,10,11,12,13,14,15,16,17-tetradecahydro-1H-cyclopenta[a]phenanthren-17-yl)-2-methyl-4-oxoheptanoic acid level at 10 mg/kg, po after 12 hrs by UPLC/Q-TOF analysis; format: ADME, organism-based; parameters: dose 10 mg/kg, route oral; conditions: in vivo
[23] = Drug excretion in Sprague-Dawley rat bile assessed as (6R)-6-((5R,7S,10S,13R,14R,17R)-2,7-dihydroxy-4-(hydroxymethyl)-4,10,13,14-tetramethyl-3,11,15-trioxo-2,3,4,5,6,7,10,11,12,13,14,15,16,17-tetradecahydro-1H-cyclopenta[a]phenanthren-17-yl)-2-hydroxy-2-methyl-4-oxoheptanoic acid level at 10 mg/kg, po after 12 hrs by UPLC/Q-TOF analysis; format: ADME, organism-based; parameters: dose 10 mg/kg, route oral; conditions: in vivo

SMILES: CC(CC(=O)CC(C)(O)C(=O)O)[C@H]1CC(=O)[C@@]2(C)C3=C(C(=O)C[C@]12C)[C@@]1(C)CC(O)C(=O)C(C)(C)[C@@H]1C[C@@H]3O (some centres not stated)
- Retention_time [1]: 8.2 min
- Drug excretion [2]: metabolite_detected

SMILES: CC(CC(=O)CC(C)[C@H]1CC(=O)[C@@]2(C)C3=C(C(=O)C[C@]12C)[C@@]1(C)CCC(=O)C(C)(CO)[C@@H]1C[C@@H]3O)C(=O)O (some centres not stated)
- Retention_time [1]: 9.2 min
- Drug excretion [2]: metabolite_detected

SMILES: CC(CC(=O)CC(C)(O)C(=O)O)[C@H]1CC(=O)[C@@]2(C)C3=C(C(=O)C[C@]12C)[C@@]1(C)CCC(=O)C(C)(C)[C@@H]1C[C@@H]3O (some centres not stated)
- Retention_time [1]: 10 min
- Drug excretion [2]: metabolite_detected

SMILES: CC(CC(=O)CC(C)[C@H]1CC(=O)[C@@]2(C)C3=C(C(=O)C[C@]12C)[C@@]1(C)CCC(OS(=O)(=O)O)C(C)(C)[C@@H]1C[C@@H]3O)C(=O)O (some centres not stated)
- Retention_time [1]: 8.5 min
- Drug excretion [2]: metabolite_detected

SMILES: CC(CC(=O)CC(C)C1=CC(=O)[C@@]2(C)C3=C(C(=O)C[C@]12C)[C@@]1(C)CCC(=O)C(C)(C)[C@@H]1C[C@@H]3O)C(=O)O (some centres not stated)
- Retention_time [1]: 11.9 min
- Drug excretion [2]: metabolite_detected

SMILES: CC(CC(=O)CC(CO)C(=O)O)[C@H]1CC(=O)[C@@]2(C)C3=C(C(=O)C[C@]12C)[C@@]1(C)CC(O)C(=O)C(C)(C)[C@@H]1C[C@@H]3O (some centres not stated)
- Retention_time [1]: 8 min
- Drug excretion [2]: metabolite_detected

SMILES: CC(CC(=O)CC(C)[C@H]1CC(=O)[C@@]2(C)C3=C(C(=O)C[C@]12C)[C@@]1(C)CC(O)C(=O)C(C)(C)[C@@H]1C[C@@H]3O)C(=O)O (some centres not stated)
- Retention_time [1]: 9.5 min
- Drug metabolism (Liver microsome [3]): metabolite_detected
- Drug excretion [2]: metabolite_detected

SMILES: CC(CC(=O)CC(C)[C@H]1CC(=O)[C@@]2(C)C3=C(C(=O)C[C@]12C)[C@@]1(C)CC(O)C(=O)C(C)(CO)[C@@H]1C[C@@H]3O)C(=O)O (some centres not stated)
- Retention_time [1]: 7.3 min
- Drug metabolism (Liver microsome [3]): metabolite_detected
- Drug excretion [2]: metabolite_detected

SMILES: CC(CC(=O)CC(C)[C@H]1CC(=O)[C@@]2(C)C3=C(C(=O)C[C@]12C)[C@@]1(C)CCC(=O)C(C)(C)[C@@H]1C[C@@H]3O)C(=O)O (some centres not stated)
- Drug metabolism (Liver microsome [4]): metabolite_detected
- Drug excretion [5]: metabolite_not_detected
- Drug excretion [6]: metabolite_detected
- Drug excretion [7]: metabolite_detected
- Drug metabolism (Plasma [8]): metabolite_detected
- Retention_time [1]: 11.3 min
- Drug uptake (Plasma [9]): Active
- Drug excretion [10]: metabolite_detected
- Drug excretion [11]: metabolite_detected
- Drug metabolism (Liver microsome [12]): metabolite_detected
- Drug excretion [13]: metabolite_detected
- Drug excretion [14]: metabolite_detected
- Drug excretion [15]: metabolite_detected
- IC50 (HeLa): 17.3 µM
- Drug excretion [16]: metabolite_detected
- Drug metabolism (Liver microsome [17]): metabolite_detected
- Drug excretion [18]: metabolite_detected
- Drug metabolism (Rattus norvegicus): metabolite_detected
- Drug excretion [19]: metabolite_not_detected
- Drug excretion [20]: metabolite_detected
- Drug excretion [21]: metabolite_detected
- Drug excretion [22]: metabolite_detected
- Drug excretion [23]: metabolite_detected

SMILES: CC(CC(=O)CC(C)[C@H]1CC(=O)[C@@]2(C)C3=C(C(=O)C[C@]12C)[C@@]1(C)CCC(=O)C(C)(C)[C@@H]1CC3=O)C(=O)O (some centres not stated)
- Retention_time [1]: 11.5 min
- Drug excretion [2]: metabolite_detected

SMILES: CC(CC(=O)CC(C)[C@H]1CC(=O)[C@@]2(C)C3=C(C(=O)C[C@]12C)[C@@]1(C)CCC(O)C(C)(C)[C@@H]1C[C@@H]3O)C(=O)O (some centres not stated)
- Retention_time [1]: 9.9 min
- Drug metabolism (Liver microsome [3]): metabolite_detected
- Drug excretion [2]: metabolite_detected

SMILES: CC(CC(=O)CC(CO)C(=O)O)[C@H]1CC(=O)[C@@]2(C)C3=C(C(=O)C[C@]12C)[C@@]1(C)CCC(=O)C(C)(C)[C@@H]1C[C@@H]3O (some centres not stated)
- Retention_time [1]: 9.8 min
- Drug excretion [2]: metabolite_detected

SMILES: CC(CC(=O)CC(C)(O)C(=O)O)[C@H]1CC(=O)[C@@]2(C)C3=C(C(=O)C[C@]12C)[C@@]1(C)CCC(=O)C(C)(CO)[C@@H]1C[C@@H]3O (some centres not stated)
- Retention_time [1]: 7.5 min
- Drug excretion [2]: metabolite_detected

SMILES: CC(CC(=O)CC(C)(O)C(=O)O)[C@H]1CC(=O)[C@@]2(C)C3=C(C(=O)C[C@]12C)[C@@]1(C)CC(O)C(=O)C(C)(CO)[C@@H]1C[C@@H]3O (some centres not stated)
- Retention_time [1]: 5.9 min
- Drug excretion [2]: metabolite_detected
